Experimental data as given in PubChem BioAssay AID330 (DTP/NCI, 2004).
Where “and” joins values, the source holds several entries; their conditions need not be identical. Equal values may be shown once. Inconclusive results and toxic doses are left out. The calls were made as follows: active = survival T/C of 150% or more; inactive = T/C below 125% in these data.

Test system: P388 leukemia ip, CD2F1 mice, survival T/C
Assay: NCI In Vivo Anticancer Drug Screen. Data for tumor model P388 Leukemia (intraperitoneal) in CD2F1 (CDF1) mice
Conditions: endpoint: median survival time, higher = longer survival
Method in brief: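 Mice carrying the transplanted tumor received test compound or vehicle. Survival was recorded in each group, and the value is the treated-group measurement divided by that of the vehicle-treated control group.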

[1] = dose: 100.0 mg/kg/injection, schedule: Q04DX003 (ip), vehicle: saline
[2] = dose: 200.0 mg/kg/injection, schedule: Q04DX003 (ip), vehicle: saline
[3] = dose: 12.5 mg/kg/injection, schedule: Q01DX005 (ip), vehicle: saline with Tween-80
[4] = dose: 25.0 mg/kg/injection, schedule: Q01DX005 (ip), vehicle: Klucel (hydroxypropylcellulose) (HPC)
[5] = dose: 25.0 mg/kg/injection, schedule: Q01DX005 (ip), vehicle: saline with Tween-80
[6] = dose: 50.0 mg/kg/injection, schedule: Q01DX005 (ip), vehicle: Klucel (hydroxypropylcellulose) (HPC)
[7] = dose: 50.0 mg/kg/injection, schedule: Q01DX005 (ip), vehicle: saline with Tween-80
[8] = dose: 100.0 mg/kg/injection, schedule: Q01DX005 (ip), vehicle: Klucel (hydroxypropylcellulose) (HPC)

Measured: T/C

CC1(CO)C(O)CCC2(C)C1CCC1CC3CC12CCC3(O)CO (centres undefined)
inactive: dose: 0.78 mg/kg/injection, schedule: Q03HX024 (ip), vehicle: Klucel (hydroxypropylcellulose) (HPC) 106 % of control | dose: 0.78 mg/kg/injection, schedule: Q03HX024 (oral), vehicle: Klucel (hydroxypropylcellulose) (HPC) 100 % of control | dose: 1.56 mg/kg/injection, schedule: Q03HX024 (ip), vehicle: Klucel (hydroxypropylcellulose) (HPC) 93 % of control | dose: 1.56 mg/kg/injection, schedule: Q03HX024 (oral), vehicle: Klucel (hydroxypropylcellulose) (HPC) 99 % of control | dose: 3.12 mg/kg/injection, schedule: Q03HX024 (ip), vehicle: Klucel (hydroxypropylcellulose) (HPC) 100 % of control | dose: 3.12 mg/kg/injection, schedule: Q03HX024 (oral), vehicle: Klucel (hydroxypropylcellulose) (HPC) 102 % of control | dose: 6.25 mg/kg/injection, schedule: Q03HX024 (ip), vehicle: Klucel (hydroxypropylcellulose) (HPC) 102 % of control | dose: 6.25 mg/kg/injection, schedule: Q03HX024 (oral), vehicle: Klucel (hydroxypropylcellulose) (HPC) 98 % of control | dose: 12.5 mg/kg/injection, schedule: Q01DX009 (ip), vehicle: Klucel (hydroxypropylcellulose) (HPC) 109 % of control and 113 % of control | dose: 12.5 mg/kg/injection, schedule: Q03HX024 (ip), vehicle: Klucel (hydroxypropylcellulose) (HPC) 106 % of control | dose: 12.5 mg/kg/injection, schedule: Q03HX024 (oral), vehicle: Klucel (hydroxypropylcellulose) (HPC) 100 % of control | dose: 25.0 mg/kg/injection, schedule: Q01DX009 (ip), vehicle: Klucel (hydroxypropylcellulose) (HPC) 114 % of control and 91 % of control | dose: 25.0 mg/kg/injection, schedule: Q01DX009 (ip), vehicle: saline with Tween-80 112 % of control | dose: 25.0 mg/kg/injection, schedule: Q03HX024 (ip), vehicle: Klucel (hydroxypropylcellulose) (HPC) 119 % of control | dose: 25.0 mg/kg/injection, schedule: Q03HX024 (oral), vehicle: Klucel (hydroxypropylcellulose) (HPC) 100 % of control | dose: 25.0 mg/kg/injection, schedule: Q04DX003 (ip), vehicle: Klucel (hydroxypropylcellulose) (HPC) 100 % of control | dose: 30.0 mg/kg/injection, schedule: Q01DX005 (iv), vehicle: saline with Tween-80 109 % of control | dose: 50.0 mg/kg/injection, schedule: Q01DX009 (ip), vehicle: saline with Tween-80 115 % of control | dose: 50.0 mg/kg/injection, schedule: Q03HX024 (ip), vehicle: Klucel (hydroxypropylcellulose) (HPC) 120 % of control | dose: 50.0 mg/kg/injection, schedule: Q03HX024 (oral), vehicle: Klucel (hydroxypropylcellulose) (HPC) 101 % of control | dose: 50.0 mg/kg/injection, schedule: Q04DX002 (ip), vehicle: Klucel (hydroxypropylcellulose) (HPC) 97 % of control | dose: 50.0 mg/kg/injection, schedule: Q04DX003 (ip), vehicle: Klucel (hydroxypropylcellulose) (HPC) 103 % of control | dose: 60.0 mg/kg/injection, schedule: Q01DX005 (iv), vehicle: saline with Tween-80 107 % of control | dose: 60.0 mg/kg/injection, schedule: Q01DX005 (oral), vehicle: saline with Tween-80 107 % of control | dose: 75.0 mg/kg/injection, schedule: Q04DX002 (ip), vehicle: Klucel (hydroxypropylcellulose) (HPC) 105 % of control | dose: 100.0 mg/kg/injection, schedule: Q01DX009 (ip), vehicle: saline with Tween-80 121 % of control | dose: 100.0 mg/kg/injection, schedule: Q03HX024 (oral), vehicle: Klucel (hydroxypropylcellulose) (HPC) 111 % of control | dose: 100.0 mg/kg/injection, schedule: Q04DX002 (ip), vehicle: Klucel (hydroxypropylcellulose) (HPC) 100 % of control | dose: 100.0 mg/kg/injection, schedule: Q04DX003 (ip), vehicle: Klucel (hydroxypropylcellulose) (HPC) 114 % of control | dose: 120.0 mg/kg/injection, schedule: Q01DX005 (iv), vehicle: saline with Tween-80 100 % of control | dose: 120.0 mg/kg/injection, schedule: Q01DX005 (oral), vehicle: saline with Tween-80 103 % of control | dose: 150.0 mg/kg/injection, schedule: Q04DX002 (ip), vehicle: Klucel (hydroxypropylcellulose) (HPC) 111 % of control | dose: 200.0 mg/kg/injection, schedule: Q01DX009 (ip), vehicle: Klucel (hydroxypropylcellulose) (HPC) 92 % of control and 96 % of control | dose: 200.0 mg/kg/injection, schedule: Q01DX009 (ip), vehicle: saline with Tween-80 105 % of control | dose: 200.0 mg/kg/injection, schedule: Q01DX009 (oral), vehicle: saline with Tween-80 100 % of control | dose: 200.0 mg/kg/injection, schedule: Q04DX002 (ip), vehicle: Klucel (hydroxypropylcellulose) (HPC) 105 % of control | dose: 200.0 mg/kg/injection, schedule: Q04DX003 (ip), vehicle: Klucel (hydroxypropylcellulose) (HPC) 119 % of control | dose: 240.0 mg/kg/injection, schedule: Q01DX005 (ip), vehicle: saline with Tween-80 109 % of control | dose: 240.0 mg/kg/injection, schedule: Q01DX005 (iv), vehicle: saline with Tween-80 106 % of control | dose: 240.0 mg/kg/injection, schedule: Q01DX005 (oral), vehicle: saline with Tween-80 102 % of control | dose: 300.0 mg/kg/injection, schedule: Q04DX002 (ip), vehicle: Klucel (hydroxypropylcellulose) (HPC) 115 % of control | dose: 400.0 mg/kg/injection, schedule: Q01DX009 (oral), vehicle: saline with Tween-80 103 % of control | dose: 400.0 mg/kg/injection, schedule: Q04DX002 (ip), vehicle: Klucel (hydroxypropylcellulose) (HPC) 117 % of control | dose: 480.0 mg/kg/injection, schedule: Q01DX005 (oral), vehicle: saline with Tween-80 107 % of control | dose: 600.0 mg/kg/injection, schedule: Q04DX002 (ip), vehicle: Klucel (hydroxypropylcellulose) (HPC) 117 % of control | dose: 800.0 mg/kg/injection, schedule: Q01DX009 (oral), vehicle: saline with Tween-80 103 % of control | dose: 800.0 mg/kg/injection, schedule: Q04DX002 (ip), vehicle: Klucel (hydroxypropylcellulose) (HPC) 108 % of control | dose: 800.0 mg/kg/injection, schedule: Q04DX003 (ip), vehicle: Klucel (hydroxypropylcellulose) (HPC) 102 % of control | dose: 1200.0 mg/kg/injection, schedule: Q04DX002 (ip), vehicle: Klucel (hydroxypropylcellulose) (HPC) 118 % of control | dose: 1600.0 mg/kg/injection, schedule: Q01DX009 (oral), vehicle: saline with Tween-80 88 % of control

Cc1ccc2c(c1)C(O)C(N)CCO2 (centres undefined)
inactive: [1] 100 % of control | [2] 102 % of control

COc1cc2c(c3c1c(=O)c1ccccc1n3C)C=CC(C)(C)O2
inactive: dose: 7.5 mg/kg/injection, schedule: Q01DX009 (ip), vehicle: saline with Tween-80 99 % of control | [3] 92 % of control | dose: 15.0 mg/kg/injection, schedule: Q01DX009 (ip), vehicle: saline with Tween-80 98 % of control | [4] 97 % of control | [5] 92 % of control | dose: 30.0 mg/kg/injection, schedule: Q01DX009 (ip), vehicle: saline with Tween-80 103 % of control | [6] 112 % of control | [7] 112 % of control | [8] 118 % of control | dose: 100.0 mg/kg/injection, schedule: Q01DX005 (ip), vehicle: saline with Tween-80 113 % of control

COc1ccc(OC)c2c(Cl)ccnc12
inactive: [3] 99 % of control | [5] 103 % of control | [7] 97 % of control

CCOC(=O)NC(NC(=O)OCC)c1ccccc1[N+](=O)[O-]
inactive: [1] 99 % of control | [2] 99 % of control | dose: 400.0 mg/kg/injection, schedule: Q04DX003 (ip), vehicle: saline 89 % of control

CC(C)CCC[C@@H](C)[C@H]1CC[C@H]2[C@@H]3CC[C@H]4C[C@@H](N)CC[C@]4(C)[C@H]3CC[C@]12C
inactive: dose: 6.25 mg/kg/injection, schedule: Q01DX005 (ip), vehicle: Klucel (hydroxypropylcellulose) (HPC) 98 % of control | dose: 12.5 mg/kg/injection, schedule: Q01DX005 (ip), vehicle: Klucel (hydroxypropylcellulose) (HPC) 97 % of control | [4] 95 % of control | [6] 112 % of control | [8] 109 % of control

O=C(O)c1cc2ccc(Br)cc2[se]1
inactive: dose: 50.0 mg/kg/injection, schedule: Q01DX009 (ip), vehicle: saline 110 % of control | dose: 100.0 mg/kg/injection, schedule: Q01DX009 (ip), vehicle: saline 99 % of control | dose: 200.0 mg/kg/injection, schedule: Q01DX009 (ip), vehicle: saline 94 % of control

O=C(Nc1c(Cl)cccc1Cl)OCc1ccc2c(c1)OCO2
inactive: dose: 60.0 mg/kg/injection, schedule: Q01DX005 (ip), vehicle: Klucel (hydroxypropylcellulose) (HPC) 92 % of control | dose: 120.0 mg/kg/injection, schedule: Q01DX005 (ip), vehicle: Klucel (hydroxypropylcellulose) (HPC) 90 % of control | dose: 240.0 mg/kg/injection, schedule: Q01DX005 (ip), vehicle: Klucel (hydroxypropylcellulose) (HPC) 90 % of control
